From patent US9636323B2, “Method of treating cancer that overexpresses TopBP1” (Baylor College of Medicine, priority 2014, dated 2017)

Experiments:
[1] = tested on: SKOV-3 ovarian cancer cells; assay: MTS assay, SKOV-3; type: cell-based, human
Method: Then 50 μl of MTS reagent (CellTiter 96® AQueous One Solution Cell Proliferation Assay, Promega) was added to each well, covered from light and incubated for 1 h at 37.0 incubator to develop purple color. The samples were measured at 490 nm in a plate reader (BioTek Synergy HT) against a blank 48-well plate. Each assay was done in triplicate.

NCI-H460 = conditions: NCI-DTP database; cited from earlier work
MDA-MB468 cells = assay: Caspase 3/7 activity assay, MDA-MB468; type: cell-based, human
Method: (§1) The apoptosis was measured by Caspase-Glo® 3/7 assay (Promega) following the manufacturer's protocol. The cells were plated in 6-well tissue culture dish (10^4 cells/well) (BD Falcon) in respective media. […] The blank reactions were prepared per direction. Equal volume of Caspase-Glo® 3/7 reagents were applied to each well. A luminometer (Sirius) was used to quantitate luminescence.
(§2) To prepare TopBP1 knockdown stable cell line, MDA-MB468 cells were infected with lentivirus expressing TopBP1 shRNA (Liu et al. 2011) as well as scramble shRNA, separately. The infected cells were grown for 48 h followed by selection with puromycin (2 μg/ml). After selection, the knockdown was confirmed by Western blotting before further experiments. Two different pLKO-shTopBP1 (#1 and #2) constructs (Open Biosystems, RHS4533-NM_007027) were used to deplete TopBP1 in MDA-MB468 cells. Additional two pSuper-shTopBP1 constructs (Liu et al. 2004) were used to knock down TopBP1 in HEK293 cells. Two pSuper-shE2F1 constructs were used to deplete E2F1: shE2F1#1 (described previously (Liu et al. 2004)), and shE2F1#2 (target sequence 5′-[…]-3′). The target sequence for pSuperior-shE2F1 is the same as pSuper-shE2F1#1. To deplete p63, shp63alpha pLKO.1-puro (from Addgene, 19120) was used. TP73 MISSION shRNA (shp73 pLKO.1-puro) was purchased from Sigma (TRCN00002722587).

TopBP1/Miz1 interaction = molecular target: T1, TopBP1/Miz1 interaction (Homo sapiens, UniProt Q92547); assay: Co-immunoprecipitation in BT549 cells, TopBP1/Miz1; type: cell-based; conditions: 2.5 μM, 3 h
T1 construct: expressed in transfected cells; host or cells: BT549
T1 sequence (Q92547 whole entry): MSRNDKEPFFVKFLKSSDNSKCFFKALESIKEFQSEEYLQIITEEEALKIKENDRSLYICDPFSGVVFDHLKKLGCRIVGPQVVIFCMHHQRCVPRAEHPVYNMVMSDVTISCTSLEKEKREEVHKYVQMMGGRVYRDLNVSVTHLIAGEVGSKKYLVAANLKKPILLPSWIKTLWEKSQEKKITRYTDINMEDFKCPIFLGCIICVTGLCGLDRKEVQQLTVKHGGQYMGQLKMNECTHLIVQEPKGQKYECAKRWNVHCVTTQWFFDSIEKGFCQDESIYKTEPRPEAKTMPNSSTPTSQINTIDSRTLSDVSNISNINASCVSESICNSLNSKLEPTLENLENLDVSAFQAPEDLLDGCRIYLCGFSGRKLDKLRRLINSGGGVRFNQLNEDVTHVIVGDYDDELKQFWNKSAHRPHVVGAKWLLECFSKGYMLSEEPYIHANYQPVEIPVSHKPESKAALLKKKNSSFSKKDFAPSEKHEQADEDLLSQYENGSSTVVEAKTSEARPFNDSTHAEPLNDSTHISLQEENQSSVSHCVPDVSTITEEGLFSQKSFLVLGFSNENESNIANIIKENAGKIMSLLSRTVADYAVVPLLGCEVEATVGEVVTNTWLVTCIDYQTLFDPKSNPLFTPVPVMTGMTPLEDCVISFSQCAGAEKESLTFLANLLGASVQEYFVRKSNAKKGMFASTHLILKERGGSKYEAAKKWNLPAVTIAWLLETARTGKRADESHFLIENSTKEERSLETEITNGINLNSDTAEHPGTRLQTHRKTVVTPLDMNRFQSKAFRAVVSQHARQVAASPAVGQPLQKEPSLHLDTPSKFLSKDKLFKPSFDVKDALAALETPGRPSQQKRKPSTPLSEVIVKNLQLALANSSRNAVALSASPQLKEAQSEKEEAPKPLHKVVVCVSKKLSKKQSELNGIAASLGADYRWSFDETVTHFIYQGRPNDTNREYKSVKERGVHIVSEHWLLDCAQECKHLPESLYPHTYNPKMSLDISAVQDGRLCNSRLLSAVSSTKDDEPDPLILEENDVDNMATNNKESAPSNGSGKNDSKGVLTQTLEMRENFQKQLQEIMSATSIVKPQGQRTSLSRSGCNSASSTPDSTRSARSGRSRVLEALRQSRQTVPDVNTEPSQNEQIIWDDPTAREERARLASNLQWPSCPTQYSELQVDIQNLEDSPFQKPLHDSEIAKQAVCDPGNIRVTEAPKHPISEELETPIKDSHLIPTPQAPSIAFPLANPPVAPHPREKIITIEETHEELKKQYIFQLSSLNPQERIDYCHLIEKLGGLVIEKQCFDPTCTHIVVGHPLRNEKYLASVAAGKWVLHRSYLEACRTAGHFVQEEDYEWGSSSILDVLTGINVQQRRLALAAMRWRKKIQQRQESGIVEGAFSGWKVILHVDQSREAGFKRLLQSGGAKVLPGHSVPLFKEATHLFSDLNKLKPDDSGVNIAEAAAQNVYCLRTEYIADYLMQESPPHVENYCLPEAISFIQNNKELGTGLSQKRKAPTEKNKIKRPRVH

[2] = tested on: p53 targets p21 and Bax in HCT116 cells; assay: Induction of p21 and Bax in isogenic p53+/+ and p53−/− HCT116 cells; type: cell-based; conditions: p53+/+ versus p53−/− HCT116
[3] = tested on: mutp53(R273H) gain of function; assay: p73 activity reporter (Bax promoter-luciferase) assay in p53-null H1299 cells expressing p73α and mutp53(R273H); type: cell-based, human
Method: E2F1 activity reporter assay using a p14^ARF promoter-luciferase plasmid was performed as described (Liu et al. 2003). p53 activity reporter assay was performed by a p21^Cip promoter-luciferase plasmid (Liu et al. 2009). p73 activity reporter assay was performed using a pGL3-Bax promoter-luciferase plasmid (Liu et al. 2011). pRL-TK (Renilla luciferase, Promega) was used in all experiments for controlling transfection efficiency. The firefly and Renilla luciferase activities were measured by Dual-Luciferase Reporter System (Promega), and the firefly luciferase activities were normalized against the Renilla activity. All assays were performed in triplicate.

NCI-H23 = conditions: NCI-DTP database; cited from earlier work
mice = conditions: cited from earlier work
[4] = tested on: mice (intestinal tissues); assay: Tolerability and acute toxicity in proliferating tissues after i.p. injection; type: in vivo
BT549 cells = assay: Caspase-Glo 3/7 activity assay, BT549; type: cell-based, human; conditions: for Calcein AM-induced apoptosis: 17 h
Method: as §1, §2

MCF7 cells = assay: Caspase 3/7 activity assay, MCF7; type: cell-based, human; conditions: 2.5 μM overnight
Method: as §1

A549 = conditions: NCI-DTP database; cited from earlier work
[5] = tested on: TopBP1 checkpoint activation (Chk1); assay: HU-induced Chk1 activation; type: cell-based
Method: MDA-MB468 cells were lysed with TNN buffer (Liu et al. 2003). An aliquot of cell lysates was lysed with SDS lysis buffer and the rest of cell lysates were incubated with appropriate antibodies or beads at 4° C. for 3-12 h. Anti-FLAG beads (Sigma) were washed three times with TNN buffer. Immunoprecipitates were fractionated by SDS-PAGE and electro-transferred to Immobilon-P membrane (Millipore). Equal amount of protein loading was validated with Ponceau-S staining. The specific signals were detected by incubating with appropriate antibody. All primary antibodies were used at 1:1000 dilution and horseradish peroxidase (HRP)-conjugated secondary antibodies were used at 1:5000 dilution for immunoblotting. E2F1 (C-20 and KH-95), p53 (FL393), p63 (4A4 and H-129), p73 (H-79), p21 (C-19), Bax (N-20), GST (B-14), c-Myc (A14), Miz1 (H-190), Chk1 (G4), Actin (C-2) and GAPDH (6C5) antibodies were purchased from Santa Cruz. TopBP1 (mouse monoclonal) and Aid antibodies were purchased from BD Transduction Laboratories. TopBP1 (BL893, Rabbit polyclonal) antibody was purchased from Bethyl. Mouse monoclonal anti-phospho-γH2AX was purchased from Millipore. Phospho-Chk1 (Ser345) antibody was purchased from Cell signaling. FLAG (F7425) antibody was purchased from Sigma. Mouse monoclonal anti-p73 (IMG-246) was purchased from IMGENEX.

Which “proliferation (MTS)” value ([1]; Calcein AM 5 μM in combination with cisplatin 20 μM, 20 h) does the source give for `CC(=O)OCOC(=O)CN(CC(=O)OCOC(C)=O)Cc1cc2c(cc1OC(C)=O)Oc1cc(OC(C)=O)c(CN(CC(=O)OCOC(C)=O)CC(=O)OCOC(C)=O)cc1C21OC(=O)c2ccccc21` [Calcein AM, Calcein AM (acetoxymethyl ester)] here?
Its value is “inhibited the proliferation”.

And the “proliferation (MTS)” value ([1]; Calcein AM alone, overnight)?
Its value is “inhibited the proliferation”.

What about the GI50 (NCI-H460) of the same compound?
Its GI50 is < 1 µM.

And the “apoptosis (caspase 3/7 activity)” value (MDA-MB468 cells; 2.5 μM overnight)?
Its value is “induced apoptosis”.

And the “apoptosis (caspase 3/7 activity)” value (MDA-MB468 cells; 0.1 and 0.5 μM, 16 h)?
The value was “not”.

What about the “apoptosis (caspase 3/7 activity)” value (MDA-MB468 cells; 2.5 and 5 μM, 16 h) of the same compound?
The value was “induced”.

And the “effect of Calcein AM on apoptosis (caspase 3/7)” value (MDA-MB468 cells; TopBP1-depleted cells, 2.5 μM overnight)?
Its value is “mitigated the effect”.

And the “interaction between TopBP1 and Miz1” value (TopBP1/Miz1 interaction)?
The value was “inhibited the interaction between TopBP1 and Miz1”.

And the “induction of p21 and Bax” value [2]?
The value was “observed on in p53^+/+, but not in p53^−/−”.

And the “inhibition of p73 transcriptional activity by mutp53(R273H)” value [3]?
Its value is “blocked”.

And the GI50 (NCI-H23)?
The GI50 was < 1 µM.

And the “oral LD50” value (mice; oral)?
The value was 17000 mg/kg.

What about the “percutaneous LD50” value (mice; percutaneous) of the same compound?
Its value is 5000 mg/kg.

And the “apparent toxicity in injected mice” value ([4]; 40 mg/kg)?
Its value is “did not manifest any apparent toxicity”.

And the “Ki-67 staining in intestinal epithelium” value ([4]; 40 mg/kg, 48 h after injection)?
Its value is “did not decrease Ki-67 staining”.

And the “apoptosis in intestinal epithelium” value ([4]; 40 mg/kg, 48 h after injection)?
Its value is “nor did it induce apoptosis”.

What about the “tolerability of i.p. injections” value ([4]; throughout the course of treatment) of the same compound?
The value was “appeared to tolerate”.

And the “concentration at which apoptosis was induced” value (BT549 cells; 16 h)?
The value was ≥ 1 µM.

And the “Calcein AM response, caspase activation” value (BT549 cells; E2F1 depleted by two shRNA constructs, 2.5 μM, 16 h)?
The value was “attenuated”.

And the “Calcein AM-induced apoptosis” value (BT549 cells; p63 depleted, 2.5 μM)?
The value was “decreased”.

What about the “Calcein AM-induced apoptosis” value (BT549 cells; p73 depleted, 2.5 μM) of the same compound?
The value was “decreased”.

What about the “apoptosis (caspase 3/7 activity)” value (MCF7 cells) of the same compound?
The value was “induced apoptosis”.

What about the GI50 (A549) of the same compound?
Its GI50 is < 1 µM.

And the “HU-induced Chk1 activation” value [5]?
The value was “did not block HU-induced Chk1 activation”.
